Laboratory results taken from patent publication US20180057507A1, “INHIBITORS OF DUAL LEUCINE ZIPPER (DLK) KINASE FOR THE TREATMENT OF DISEASE” (Board of Regents, The University of Texas System, priority 2016, published 2018).

target: T1, human DLK (Homo sapiens, UniProt Q12852); assay: DLK Kd Determinations (KINOMEscan KdELECT, DiscoveRx); set-up: full length of human DLK (amino acids 1-859); host or cells: transiently transfected HEK293 cells; unpurified extract; conditions: fusion protein of full length human DLK (amino acids 1-859) and NFkB DNA binding domain; qPCR readout; duplicate
T1 sequence (Q12852 1-859): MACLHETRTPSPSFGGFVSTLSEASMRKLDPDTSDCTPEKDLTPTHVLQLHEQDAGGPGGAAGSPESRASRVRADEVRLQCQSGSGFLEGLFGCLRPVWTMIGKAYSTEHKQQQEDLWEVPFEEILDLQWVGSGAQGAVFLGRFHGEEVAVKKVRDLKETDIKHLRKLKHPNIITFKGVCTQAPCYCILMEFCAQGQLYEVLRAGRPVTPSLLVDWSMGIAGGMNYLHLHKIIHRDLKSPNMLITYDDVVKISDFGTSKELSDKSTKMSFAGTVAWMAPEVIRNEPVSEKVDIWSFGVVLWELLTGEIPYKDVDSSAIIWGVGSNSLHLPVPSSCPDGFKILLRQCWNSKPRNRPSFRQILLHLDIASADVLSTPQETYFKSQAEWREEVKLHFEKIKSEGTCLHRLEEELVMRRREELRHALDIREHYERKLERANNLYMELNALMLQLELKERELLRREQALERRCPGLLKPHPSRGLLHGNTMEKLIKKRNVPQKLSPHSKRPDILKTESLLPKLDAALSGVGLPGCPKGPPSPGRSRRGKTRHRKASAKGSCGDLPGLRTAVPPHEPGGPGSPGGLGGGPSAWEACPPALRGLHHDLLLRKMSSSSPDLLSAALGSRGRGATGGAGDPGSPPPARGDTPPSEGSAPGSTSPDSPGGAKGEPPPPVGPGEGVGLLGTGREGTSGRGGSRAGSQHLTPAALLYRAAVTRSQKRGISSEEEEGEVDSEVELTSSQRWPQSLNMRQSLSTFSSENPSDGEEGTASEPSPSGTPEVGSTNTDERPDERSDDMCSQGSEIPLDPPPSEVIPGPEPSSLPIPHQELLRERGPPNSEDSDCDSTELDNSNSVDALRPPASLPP
In short: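 Kd values were fitted by Hill equation (slope −1) from duplicate 11-point 3-fold dilutions starting at 30,000 nM. Bead-immobilized ligand competed with compound for DNA-tagged full-length human DLK fusion in HEK293 extract (final DMSO 0.9%, 1 h, room temperature), with qPCR readout of bound kinase.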

| Compound | Kd [nM] |
| --- | --- |
| Nc1ncc(-c2cn([C@H]3[C@@H]4CN(C5COC5)C[C@@H]43)c(CC(F)(F)F)n2)cc1C(F)(F)F [Example 52, 5-(1-((1R,5S,6s)-3-(oxetan-3-yl)-3-azabicyclo[3.1.0]hexan-6-yl)-2-(2,2,2-trifluoroethyl)-1H-imidazol-4-yl)-3-(trifluoromethyl)pyridin-2-amine] | 100 |
| CC(C)c1nc(-c2cnc(N)c(C(F)(F)F)c2)cn1CC1CCOCC1 [Example 34, 5-(2-isopropyl-1-((tetrahydro-2H-pyran-4-yl)methyl)-1H-imidazol-4-yl)-3-(trifluoromethyl)pyridin-2-amine] | 870 |
| Nc1ncc(-c2cn(C3CC3)c(CC3CC3)n2)cc1C(F)(F)F [Example 47, 5-(1-cyclopropyl-2-(cyclopropylmethyl)-1H-imidazol-4-yl)-3-(trifluoromethyl)pyridin-2-amine] | 120 |
| Nc1ncc(-c2cn([C@H]3[C@@H]4CNC[C@@H]43)c(CC(F)(F)F)n2)cc1C(F)(F)F [Example 120, 5-(1-((1R,5S,6s)-3-azabicyclo[3.1.0]hexan-6-yl)-2-(2,2,2-trifluoroethyl)-1H-imidazol-4-yl)-3-(trifluoromethyl)pyridin-2-amine] | 40 |
| CC1OCCn2cc(-c3cnc(N)c(C(F)(F)F)c3)nc21 (centres unmarked) [Example 5, 5-(8-methyl-6,8-dihydro-5H-imidazo[2,1-c][1,4]oxazin-2-yl)-3-(trifluoromethyl)pyridin-2-amine] | 3300 |
| CC(C)c1nc(-c2cnc(N)c(C(F)(F)F)c2)cn1C1CCCC1 [Example 28, 5-(1-cyclopentyl-2-isopropyl-1H-imidazol-4-yl)-3-(trifluoromethyl)pyridin-2-amine] | 220 |
| CC(C)c1nc(-c2cnc(N)c(C(F)(F)F)c2)cn1Cc1cccnc1 [Example 32, 5-(2-isopropyl-1-(pyridin-3-ylmethyl)-1H-imidazol-4-yl)-3-(trifluoromethyl)pyridin-2-amine] | 940 |
| CC(C)c1nc(-c2cnc(N)c(C(F)(F)F)c2)cn1[C@H]1C[C@@H](F)C1 [Example 24, 5-(1-((1s,3s)-3-fluorocyclobutyl)-2-isopropyl-1H-imidazol-4-yl)-3-(trifluoromethyl)pyridin-2-amine] | 240 |
| CC(C)c1nc(-c2cnc(N)c(C(F)(F)F)c2)cn1C1COC1 [Example 29, 5-(2-isopropyl-1-(oxetan-3-yl)-1H-imidazol-4-yl)-3-(trifluoromethyl)pyridin-2-amine] | 1000 |
| Nc1ncc(-c2cn([C@H]3[C@@H]4CN(CC(F)(F)F)C[C@@H]43)c(CC(F)(F)F)n2)cc1C(F)(F)F [Example 124, 5-(2-(2,2,2-trifluoroethyl)-1-((1R,5S,6s)-3-(2,2,2-trifluoroethyl)-3-azabicyclo[3.1.0]hexan-6-yl)-1H-imidazol-4-yl)-3-(trifluoromethyl)pyridin-2-amine] | 240 |
| CC(C)c1nc(-c2cnc(N)c(C(F)(F)F)c2)cn1[C@H]1[C@@H]2CC(N3CCOCC3)C[C@@H]21 (mixture of isomers) [Example 3, 5-(2-isopropyl-1-((1R,5S,6r)-3-morpholinobicyclo[3.1.0]hexan-6-yl)-1H-imidazol-4-yl)-3-(trifluoromethyl)pyridin-2-amine] | 51 |
| Nc1ncc(-c2cn([C@H]3[C@@H]4CNC[C@@H]43)c(CC3CC3)n2)cc1C(F)(F)F [Example 59, 5-(1-((1R,5S,6s)-3-azabicyclo[3.1.0]hexan-6-yl)-2-(cyclopropylmethyl)-1H-imidazol-4-yl)-3-(trifluoromethyl)pyridin-2-amine] | 50 |

Next, values leading:

| Kd [nM] | Compound |
| --- | --- |
| 140 | Nc1ncc(-c2cn([C@H]3[C@@H]4CN(CC(F)(F)F)C[C@@H]43)c(C3CC3)n2)cc1OC(F)F [Example 108, 5-(2-cyclopropyl-1-((1R,5S,6s)-3-(2,2,2-trifluoroethyl)-3-azabicyclo[3.1.0]hexan-6-yl)-1H-imidazol-4-yl)-3-(difluoromethoxy)pyridin-2-amine] |
| 78 | CC(C)c1nc(-c2cnc(N)c(C(F)(F)F)c2)cn1[C@H]1[C@@H]2CN(C3CCOCC3)C[C@@H]21 [Example 13, 5-(2-isopropyl-1-((1R,5S,6s)-3-(tetrahydro-2H-pyran-4-yl)-3-azabicyclo[3.1.0]hexan-6-yl)-1H-imidazol-4-yl)-3-(trifluoromethyl)pyridin-2-amine] |
| 340 | Nc1ncc(-c2cn([C@H]3[C@@H]4CN(CC(F)(F)F)C[C@@H]43)c(CC3CC3)n2)cc1OC(F)(F)F [Example 99, 5-(2-(cyclopropylmethyl)-1-((1R,5S,6s)-3-(2,2,2-trifluoroethyl)-3-azabicyclo[3.1.0]hexan-6-yl)-1H-imidazol-4-yl)-3-(trifluoromethoxy)pyridin-2-amine] |
| 93 | Nc1ncc(-c2cn([C@H]3[C@@H]4CN(CC(F)F)C[C@@H]43)c(CC3CC3)n2)cc1OC(F)(F)F [Example 98, 5-(2-(cyclopropylmethyl)-1-((1R,5S,6s)-3-(2,2-difluoroethyl)-3-azabicyclo[3.1.0]hexan-6-yl)-1H-imidazol-4-yl)-3-(trifluoromethoxy)pyridin-2-amine] |
| 180 | Nc1ncc(-c2cn([C@H]3[C@@H]4CN(C5COC5)C[C@@H]43)c(C3CCC3)n2)cc1OC(F)F [Example 57, 5-(2-cyclobutyl-1-((1R,5S,6s)-3-(oxetan-3-yl)-3-azabicyclo[3.1.0]hexan-6-yl)-1H-imidazol-4-yl)-3-(difluoromethoxy)pyridin-2-amine] |
| 77 | CC(=O)N1C[C@@H]2[C@H](C1)[C@H]2n1cc(-c2cnc(N)c(OC(F)(F)F)c2)nc1CC1CC1 [Example 91, 1-((1R,5S,6s)-6-(4-(6-amino-5-(trifluoromethoxy)pyridin-3-yl)-2-(cyclopropylmethyl)-1H-imidazol-1-yl)-3-azabicyclo[3.1.0]hexan-3-yl)ethan-1-one] |
| 270 | Nc1ncc(-c2cn([C@H]3[C@@H]4CN(CC(F)(F)F)C[C@@H]43)c(C3CC3)n2)cc1C(F)(F)F [Example 93, 5-(2-cyclopropyl-1-((1R,5S,6s)-3-(2,2,2-trifluoroethyl)-3-azabicyclo[3.1.0]hexan-6-yl)-1H-imidazol-4-yl)-3-(trifluoromethyl)pyridin-2-amine] |
| 66 | CC(C)c1nc(-c2cnc(N)c(OC(F)(F)F)c2)cn1[C@H]1[C@@H]2CN(CC(F)F)C[C@@H]21 [Example 109, 5-(1-((1R,5S,6s)-3-(2,2-difluoroethyl)-3-azabicyclo[3.1.0]hexan-6-yl)-2-isopropyl-1H-imidazol-4-yl)-3-(trifluoromethoxy)pyridin-2-amine] |
| 74 | COCCN1C[C@@H]2[C@H](C1)[C@H]2n1cc(-c2cnc(N)c(OC(F)F)c2)nc1C1CC1 [Example 107, 5-(2-cyclopropyl-1-((1R,5S,6s)-3-(2-methoxyethyl)-3-azabicyclo[3.1.0]hexan-6-yl)-1H-imidazol-4-yl)-3-(difluoromethoxy)pyridin-2-amine] |
| 280 | Nc1ncc(-c2cn([C@H]3[C@@H]4CN(CC(F)(F)F)C[C@@H]43)c(CC3CC3)n2)cc1OC(F)F [Example 102, 5-(2-(cyclopropylmethyl)-1-((1R,5S,6s)-3-(2,2,2-trifluoroethyl)-3-azabicyclo[3.1.0]hexan-6-yl)-1H-imidazol-4-yl)-3-(difluoromethoxy)pyridin-2-amine] |
| 81 | Nc1ncc(-c2cn([C@H]3[C@@H]4CN(CCF)C[C@@H]43)c(CC3CC3)n2)cc1OC(F)(F)F [Example 101, 5-(2-(cyclopropylmethyl)-1-((1R,5S,6s)-3-(2-fluoroethyl)-3-azabicyclo[3.1.0]hexan-6-yl)-1H-imidazol-4-yl)-3-(trifluoromethoxy)pyridin-2-amine] |
| 290 | Nc1ncc(-c2cn([C@H]3[C@@H]4CN(CC(F)F)C[C@@H]43)c(CC3CC3)n2)cc1OC(F)F [Example 89, 5-(2-(cyclopropylmethyl)-1-((1R,5S,6s)-3-(2,2-difluoroethyl)-3-azabicyclo[3.1.0]hexan-6-yl)-1H-imidazol-4-yl)-3-(difluoromethoxy)pyridin-2-amine] |
| 100 | CC(C)c1nc(-c2cnc(N)c(OC(F)(F)F)c2)cn1[C@H]1[C@@H]2CN(CCF)C[C@@H]21 [Example 111, 5-(1-((1R,5S,6s)-3-(2-fluoroethyl)-3-azabicyclo[3.1.0]hexan-6-yl)-2-isopropyl-1H-imidazol-4-yl)-3-(trifluoromethoxy)pyridin-2-amine] |
| 240 | COCCN1C[C@@H]2[C@H](C1)[C@H]2n1cc(-c2cnc(N)c(OC(F)F)c2)nc1C(C)C [Example 55, 3-(difluoromethoxy)-5-(2-isopropyl-1-((1R,5S,6s)-3-(2-methoxyethyl)-3-azabicyclo[3.1.0]hexan-6-yl)-1H-imidazol-4-yl)pyridin-2-amine] |
